Reference: US8557816B2, “Aurora kinase modulators and method of use” (Amgen Inc., priority 2007, dated 2013)

How the values were obtained:
[1] = target: T1, AuroraA-TPX2 (Homo sapiens, UniProt O14965); test: AuroraA-TPX2 Homogeneous Time Resolved Fluorescent (HTRF) kinase assay; format: biochemical; details: average; read-out: AurA_IC50_IP (uM Avg)
T1 construct: 20 μL of AuroraA-TPX2 KD GST for a final volume of about 41 μL; GST
T1 sequence (O14965 133-383 limits assumed): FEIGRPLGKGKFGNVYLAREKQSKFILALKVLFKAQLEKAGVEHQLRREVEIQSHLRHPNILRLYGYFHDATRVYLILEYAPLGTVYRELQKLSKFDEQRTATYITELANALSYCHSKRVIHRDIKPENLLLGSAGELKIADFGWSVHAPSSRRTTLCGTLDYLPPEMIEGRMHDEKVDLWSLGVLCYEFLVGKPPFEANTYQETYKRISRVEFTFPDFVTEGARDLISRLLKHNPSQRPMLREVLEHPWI
T1 sequence (Q9ULW0 1-43 partner limits assumed): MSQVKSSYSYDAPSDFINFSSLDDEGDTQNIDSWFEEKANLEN
Outline: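 HTRF read-out (Eu 615 nm to APC 655 nm) of phosphorylated biotin-PLK, detected with 0.02 nM europium anti-phosphoPLK antibody and 0.0005 mg/mL SA-APC after overnight equilibration.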

[2] = target: T2, AuroraB (Homo sapiens, UniProt Q96GD4); test: AuroraB Homogeneous Time Resolved Fluorescent (HTRF) kinase assay; format: biochemical; details: average; read-out: AurB_IC50_IP (uM Avg)
T2 construct: 20 μL of AuroraB FL H is for a final volume of 41 μL; His
Outline: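 Full-length His-tagged kinase phosphorylates biotinylated Histone H3 (0.1 μM final) with ATP in pH 7.5 HEPES containing MgCl, MnCl, DTT and BSA for about 90 min. EDTA-containing detection mix with SA-APC and Eu-anti-phosphoHistone H3 then equilibrated about 60 min; HTRF read with 320 nm excitation, emissions 615/655 nm.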

T2 sequence (Q96GD4 whole entry): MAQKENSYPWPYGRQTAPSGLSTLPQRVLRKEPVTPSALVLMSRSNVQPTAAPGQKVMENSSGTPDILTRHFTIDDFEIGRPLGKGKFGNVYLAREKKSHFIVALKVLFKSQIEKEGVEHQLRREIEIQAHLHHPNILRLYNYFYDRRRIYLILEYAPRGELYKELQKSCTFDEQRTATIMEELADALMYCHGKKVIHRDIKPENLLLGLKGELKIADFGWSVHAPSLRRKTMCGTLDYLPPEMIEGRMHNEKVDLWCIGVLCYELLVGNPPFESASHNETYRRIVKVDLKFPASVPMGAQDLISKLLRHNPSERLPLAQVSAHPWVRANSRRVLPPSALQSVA

Row | SMILES | IC50 [1] | IC50 [2]
1 | CCc1cc(-c2ccc(C)cc2)nnc1Nc1ccc(Oc2ccnc3cc(OC)cnc23)cc1 [compound 307, 4-ethyl-N-(4-((7-(methyloxy)-1,5-naphthyridin-4-yl)oxy)phenyl)-6-(4-methylphenyl)-3-pyridazinamine] | 0.022 µM | 0.006 µM
2 | Clc1ccc(-c2nnc(Nc3ccc(Sc4ccnc5cccnc45)cc3)c3ccccc23)cc1 [compound 308, 4-(4-chlorophenyl)-N-(4-(1,5-naphthyridin-4-ylthio)phenyl)-1-phthalazinamine] | 0.029 µM | 0.004 µM
3 | c1ccc(-c2nnc(Nc3ccc(Sc4ccnc5cccnc45)cc3)c3ccccc23)cc1 [compound 309, N-(4-(1,5-naphthyridin-4-ylthio)phenyl)-4-phenyl-1-phthalazinamine] | 0.054 µM | 0.003 µM
4 | c1ccc(-c2nnc(Nc3ccc(Sc4ccnc5ccccc45)cc3)c3ccccc23)cc1 [compound 310, 4-phenyl-N-(4-(4-quinolinylthio)phenyl)-1-phthalazinamine] | 0.209 µM | 0.017 µM
5 | Cc1csc(-c2nnc(Nc3ccc(Sc4ccnc5cc(C(=O)N6CCOCC6)sc45)cc3)c3ccccc23)c1 [compound 312, (7-(4-(4-(4-methylthiophen-2-yl)phthalazin-1-ylamino)phenylthio)thieno[3,2-b]pyridin-2-yl)(morpholino)methanone] | 0.022 µM | 0.03 µM
6 | O=C(c1cc2nccc(Sc3ccc(Nc4nnc(-c5ccccc5)c5ccccc45)cc3)c2s1)N1CCOCC1 [compound 313, morpholino(7-(4-(4-phenylphthalazin-1-ylamino)phenylthio)thieno[3,2-b]pyridin-2-yl)methanone] | 0.091 µM | 0.056 µM
7 | O=C(c1cc2nccc(Sc3ccc(Nc4nnc(-c5ccc(Cl)cc5)c5ccccc45)cc3)c2s1)N1CCOCC1 [compound 314, (7-(4-(4-(4-chlorophenyl)phthalazin-1-ylamino)phenylthio)thieno[3,2-b]pyridin-2-yl)(morpholino)methanone] | 0.058 µM | 0.057 µM
8 | COc1ccc2nccc(Sc3ccc(Nc4nnc(-c5ccc(Cl)cc5)c5ccccc45)cc3)c2c1 [compound 315, 4-(4-chlorophenyl)-N-(4-(6-methoxyquinolin-4-ylthio)phenyl)phthalazin-1-amine] | 0.036 µM | 0.031 µM
9 | COc1cnc2c(Oc3ccc(Nc4nnc(-c5cc(Cl)cs5)c5ccccc45)cc3)ccnc2c1 [compound 316, 4-(4-chloro-2-thienyl)-N-(4-((7-(methyloxy)-1,5-naphthyridin-4-yl)oxy)phenyl)-1-phthalazinamine] | 0.014 µM | 0.023 µM
10 | COc1cnc2c(Oc3ccc(Nc4nnc(-c5cccc(C)c5)c5ccccc45)cc3)ccnc2c1 [compound 317, N-(4-((7-(methyloxy)-1,5-naphthyridin-4-yl)oxy)phenyl)-4-(3-methylphenyl)-1-phthalazinamine] | 0.018 µM | 0.015 µM
11 | COc1ccc2c(Cc3ccc(Nc4nnc(-c5ccccc5)c5ccccc45)cc3)ccnc2c1 [compound 319, N-(4-((7-(methyloxy)-4-quinolinyl)methyl)phenyl)-4-phenyl-1-phthalazinamine] | 0.176 µM | 0.02 µM
12 | CCc1cc(N2CC[C@H]3CCCC[C@@H]3C2)nnc1Nc1ccc(Oc2ccnc3cc(OC)cnc23)cc1 [compound 320, 4-ethyl-N-(4-((7-(methyloxy)-1,5-naphthyridin-4-yl)oxy)phenyl)-6-((4aR,8aS)-octahydro-2(1H)-isoquinolinyl)-3-pyridazinamine] | 0.112 µM | 0.067 µM
13 | CCc1cc(N2CCCCC2)nnc1Nc1ccc(Oc2ccnc3cc(OC)cnc23)cc1 [compound 321, 4-ethyl-N-(4-((7-(methyloxy)-1,5-naphthyridin-4-yl)oxy)phenyl)-6-(1-piperidinyl)-3-pyridazinamine] | 0.304 µM | 0.051 µM
14 | CCc1cc(-c2ccc(C)cc2)nnc1Nc1ccc(Sc2ccnc3cc(OC)cnc23)cc1 [compound 322, 4-ethyl-N-(4-((7-(methyloxy)-1,5-naphthyridin-4-yl)thio)phenyl)-6-(4-methylphenyl)-3-pyridazinamine] | 0.033 µM | 0.032 µM
15 | Clc1ccc(-c2nnc(Nc3ccc(Sc4ccnc5cc(Br)cnc45)cc3)c3ccccc23)cc1 [compound 324, N-(4-((7-bromo-1,5-naphthyridin-4-yl)thio)phenyl)-4-(4-chlorophenyl)-1-phthalazinamine] | 0.035 µM | 0.063 µM
16 | COc1cnc2c(Sc3ccc(Nc4nnc(-c5ccc(Cl)cn5)c5ccccc45)cc3)ccnc2c1 [compound 325, 4-(5-chloro-2-pyridinyl)-N-(4-((7-(methyloxy)-1,5-naphthyridin-4-yl)thio)phenyl)-1-phthalazinamine] | 0.013 µM | 0.019 µM

Row | SMILES | IC50 [1] | IC50 [2]
17 | COc1cc2c(Oc3ccc(Nc4nnc(-c5ccccc5)c5ccccc45)cc3)ccnc2cc1OCc1ccccc1 [compound 326, N-(4-((6-(methyloxy)-7-((phenylmethyl)oxy)-4-quinolinyl)oxy)phenyl)-4-phenyl-1-phthalazinamine] | 0.026 µM | 0.039 µM
18 | COc1cccc(-c2nnc(Nc3ccc(Sc4ccnc5ccccc45)cc3)c3ccccc23)n1 [compound 327, 4-(6-(methyloxy)-2-pyridinyl)-N-(4-(4-quinolinylthio)phenyl)-1-phthalazinamine] | 0.118 µM | 0.014 µM
19 | COc1ccc2c(Cc3ccc(Nc4nnc(-c5ccc(Cl)cc5)c5ccccc45)cc3)ccnc2c1 [compound 328, 4-(4-chlorophenyl)-N-(4-((7-(methyloxy)-4-quinolinyl)methyl)phenyl)-1-phthalazinamine] | 0.047 µM | 0.032 µM
20 | c1ccc(-c2nnc(Nc3ccc(Sc4ccnc5[nH]ccc45)cc3)c3ccccc23)cc1 [compound 329, 4-phenyl-N-(4-(1H-pyrrolo[2,3-b]pyridin-4-ylthio)phenyl)-1-phthalazinamine] | 0.114 µM | 0.009 µM
21 | Clc1ccc(-c2nnc(Nc3ccc(Sc4ccnc5[nH]ccc45)cc3)c3ccccc23)cc1 [compound 330, 4-(4-chlorophenyl)-N-(4-(1H-pyrrolo[2,3-b]pyridin-4-ylthio)phenyl)-1-phthalazinamine] | 0.038 µM | 0.009 µM
22 | COc1ccc2c(Sc3ccc(Nc4nnc(-c5ccccc5)c5ccccc45)cc3)ccnc2c1 [compound 331, N-(4-((7-(methyloxy)-4-quinolinyl)thio)phenyl)-4-phenyl-1-phthalazinamine] | 0.192 µM | 0.155 µM
23 | Clc1ccc(-c2nnc(Nc3ccc(Sc4ccnc5ccsc45)cc3)c3ccccc23)cc1 [compound 332, 4-(4-chlorophenyl)-N-(4-(thieno[3,2-b]pyridin-7-ylthio)phenyl)-1-phthalazinamine] | 0.016 µM | 0.003 µM
24 | COc1ccc2c(Sc3ccc(Nc4nnc(-c5ccc(Cl)cc5)c5ccccc45)cc3)ccnc2c1 [compound 334, 4-(4-chlorophenyl)-N-(4-(7-methoxyquinolin-4-ylthio)phenyl)phthalazin-1-amine] | 0.049 µM | 0.067 µM
25 | CCc1cc(-c2cccc(Cl)c2)nnc1Nc1ccc(Oc2ccnc3cc(OC)cnc23)cc1 [compound 335, 6-(3-chlorophenyl)-4-ethyl-N-(4-(7-methoxy-1,5-naphthyridin-4-yloxy)phenyl)pyridazin-3-amine] | 0.062 µM | 0.021 µM
26 | Cc1csc(-c2nnc(Nc3ccc(Sc4ccnc5cccnc45)cc3)c3ccccc23)c1 [compound 336, N-(4-(1,5-naphthyridin-4-ylthio)phenyl)-4-(4-methylthiophen-2-yl)phthalazin-1-amine] | 0.019 µM | 0.01 µM
27 | COc1cnc2c(Oc3ccc(Nc4nnc(N5CCSCC5)c5ccccc45)cc3)ccnc2c1 [compound 337, N-(4-(7-methoxy-1,5-naphthyridin-4-yloxy)phenyl)-4-thiomorpholinophthalazin-1-amine] | 0.076 µM | 0.015 µM
28 | Cn1cc(-c2ccc3c(Oc4ccc(Nc5nnc(-c6ccccc6)c6ccccc56)cc4)ccnc3c2)cn1 [compound 338, N-(4-(7-(1-methyl-1H-pyrazol-4-yl)quinolin-4-yloxy)phenyl)-4-phenylphthalazin-1-amine] | 0.005 µM | 0.009 µM
29 | c1ccc(-c2nnc(Nc3ccc(Oc4ccnc5cc(-c6ccsc6)ccc45)cc3)c3ccccc23)cc1 [compound 339, 4-phenyl-N-(4-(7-(thiophen-3-yl)quinolin-4-yloxy)phenyl)phthalazin-1-amine] | 0.021 µM | 0.028 µM
30 | Fc1cc(F)c2c(Sc3ccc(Nc4nnc(-c5ccc(Cl)cc5)c5ccccc45)cc3)ccnc2c1 [compound 342, 4-(4-chlorophenyl)-N-(4-(5,7-difluoroquinolin-4-ylthio)phenyl)phthalazin-1-amine] | 0.189 µM | 0.045 µM
31 | c1ccc(-c2nnc(Nc3ccc(Oc4ccnc5cc(-c6ccoc6)ccc45)cc3)c3ccccc23)cc1 [compound 343, N-(4-(7-(furan-3-yl)quinolin-4-yloxy)phenyl)-4-phenylphthalazin-1-amine] | 0.024 µM | 0.008 µM
